Holding throughout (experiment): in vitro antibacterial MIC, agar plate dilution
Holding throughout (assay type): cell-based

The subject of one experiment is Escherichia coli LL 311. The following applies: 35° C. As for the experimental part: (§1) The in vitro antimicrobial spectrum of the compounds of ths invention were determined by the agar plate dilution method with Mueller-Hinton agar and an inoculum of each test organism of approximately 10^4 colony forming units delivered by the Steers replicating device. The minimal inhibitory concentration (MIC) in mcg/ml is defined as the lowest concentration of test compound that inhibited visible growth after 18 hours incubation at 35° C. Results are given in Table I, with the test compounds identified by the number of their hereinafter described examples.

Experiment [1] relates to Staphylococcus aureus VGH 84-45. The following applies: 35° C. As for the experimental part:
as §1

The test system of experiment [2] is Proteus rettgeri CMC 84-41. The following applies: 35° C. On the procedure: as §1
Experiment [3] concerns Escherichia coli CMC 84-11. The following applies: 35° C. On the procedure:
as §1

In experiment [4] the test system is Morganella morganii CMC 84-37. The conditions noted are these: 35° C. On the procedure: as §1
Experiment [5] deals with Escherichia coli ATCC 25922. The conditions noted are these: 35° C. On the procedure: as §1
The subject of experiment [6] is Streptococcus faecalis UCI 85-19. The conditions noted are these: 35° C. As for the experimental part:
as §1

Experiment [7] has as its system Serratia marcescens VGH 84-30. The conditions noted are these: 35° C. On the procedure: as §1
For experiment [8], the system named is Staphylococcus aureus Smith. The conditions noted are these: 35° C. As for the experimental part:
as §1

Experiment [9] concerns Pseudomonas aeruginosa VGH 84-4. The following applies: 35° C. As for the experimental part:
as §1

In experiment [10] the test system is Streptococcus faecalis VGH 84-65. The conditions noted are these: 35° C. On the procedure:
as §1

Experiment [11] has as its system Pseudomonas aeruginosa LL-1244. The following applies: 35° C. As for the experimental part: as §1
Experiment [12] has as its system Staphylococcus aureus ATTC 29213. The conditions noted are these: 35° C. As for the experimental part:
as §1

The test system of experiment [13] is Serratia marcescens K 84-18. The following applies: 35° C. As for the experimental part: as §1
Experiment [14] concerns Enterobacter aerogenes VGH 84-36. The conditions noted are these: Klebsiella aerogenes, VGH8436, 18 hours, 35° C., read-out: MIC. As for the experimental part: as §1
A further experiment relates to Klebsiella pneumoniae AD. The conditions noted are these: Klebsiella pneumoniae, 18 h, 35° C., read-out: MIC. As for the experimental part:
as §1

Experiment [15] relates to Staphylococcus aureus ATCC 25913. The conditions noted are these: ATCC25913, 18 hours, 35° C. On the procedure:
as §1

The test system of experiment [16] is Klebsiella pneumoniae MOR 84-4. The conditions noted are these: Klebsiella pneumoniae, MOR844, 18 h, 35° C., read-out: MIC. As for the experimental part:
as §1

Experiment [17] relates to Morganella morganii VGH 84-11. The following applies: VGH8411, 18 hours, 35° C., read-out: MIC. On the procedure:
as §1

Experiment [18] concerns Streptococcus faecalis ATTC 29212. The conditions noted are these: Enterococcus faecalis, ATTC29212, 18 hours, 35° C., read-out: MIC. On the procedure:
as §1

Experiment [19] relates to Enterobacter cloacae VGH 84-37. The conditions noted are these: Enterobacter cloacae, VGH8437, 18 h, 35° C., read-out: MIC. As for the experimental part:
as §1

[20] abbreviates: Providencia rettgeri, CMC8441, 18 h, read-out: MIC.
The mark [21] stands for this setting: Escherichia coli, CMC8411, 18 h, read-out: MIC.
Where [22] appears, read: Escherichia coli, ATCC25922, 18 h, read-out: MIC.
The mark [23] stands for this setting: Staphylococcus aureus, 18 h, read-out: MIC.
The mark [24] stands for this setting: Pseudomonas aeruginosa, VGH844, 18 h, read-out: MIC.

Values after ≈ are worked out from the molar mass of the structure shown. Like-named read-outs stand apart in the source and are kept apart here.

Turning to `O=C(O)c1cn(-c2ccc(F)cc2)c2cc(N3CCNC(c4ccsc4)C3)c(F)cc2c1=O` (stereo not shown) [Example 100], the MIC (usually the least concentration at which growth counts as inhibited) with Escherichia coli LL 311 (Escherichia coli, LL311, 18 h, read-out: MIC) was 0.25 µg/mL (≈ 0.535 µM); in experiment [1] (Staphylococcus aureus, VGH8445, 18 h, read-out: MIC), 0.03 µg/mL (≈ 0.0642 µM); in experiment [2] (setting [20]), 1 µg/mL (≈ 2.14 µM); in experiment [3] (setting [21]) it was 0.12 µg/mL (≈ 0.257 µM); in [4] (Morganella morganii, CMC8437, 18 h, read-out: MIC), 0.5 µg/mL (≈ 1.07 µM); in experiment [5] (setting [22]), 0.25 µg/mL (≈ 0.535 µM). The MIC in experiment [6] (Enterococcus faecalis, UCI8519, 18 h, read-out: MIC) came out at 2 µg/mL (≈ 4.28 µM); in [7] (Serratia marcescens, VGH8430, 18 h, read-out: MIC), 64 µg/mL (≈ 137 µM); in [8] (setting [23]) it was 0.008 µg/mL (≈ 0.0171 µM); in experiment [9] (setting [24]), 8 µg/mL (≈ 17.1 µM); in experiment [10] (Enterococcus faecalis, VGH8465, 18 h, read-out: MIC) it was 2 µg/mL (≈ 4.28 µM); in experiment [11] (Pseudomonas aeruginosa, LL1244, 18 h, read-out: MIC), 16 µg/mL (≈ 34.2 µM). In addition, the MIC in [12] (Staphylococcus aureus, ATTC29213, 18 h, read-out: MIC) worked out at 0.06 µg/mL (≈ 0.128 µM); in [13] (Serratia marcescens, K8418, 18 h, read-out: MIC), 4 µg/mL (≈ 8.56 µM).

As for `CCn1cc(C(=O)O)c(=O)c2cc(F)c(N3CCN(C)C(CF)C3)c(F)c21` (single isomer, unassigned; (+)) [Example 115, (+)-1-Ethyl-6,8-difluoro-7-[3-(fluoromethyl)-4-methyl-1-piperazinyl]-1,4-dihydro-4-oxo-3-quinolinecarboxylic acid], the MIC against Escherichia coli LL 311 (18 hours) was 0.5 µg/mL (≈ 1.3 µM); in experiment [1] (18 hours), 0.5 µg/mL (≈ 1.3 µM); in experiment [2] (18 hours), 2 µg/mL (≈ 5.22 µM); in [3] (18 hours) it was 0.5 µg/mL (≈ 1.3 µM); in experiment [4] (18 hours), 1 µg/mL (≈ 2.61 µM); in [5] (18 hours), 0.25 µg/mL (≈ 0.652 µM). In addition, the MIC in [6] (18 hours) was determined as 8 µg/mL (≈ 20.9 µM); in experiment [7] (18 hours) it was 32 µg/mL (≈ 83.5 µM); in experiment [8] (18 hours), 0.5 µg/mL (≈ 1.3 µM); in [9] (18 hours) it was 8 µg/mL (≈ 20.9 µM); in experiment [10] (18 hours), 8 µg/mL (≈ 20.9 µM); in experiment [11] (18 hours) it was 16 µg/mL (≈ 41.7 µM). Moreover, the MIC was 8 µg/mL (≈ 20.9 µM) in experiment [12] (18 hours) and 2 µg/mL (≈ 5.22 µM) in [13] (18 hours).

Turning to `CCn1cc(C(=O)O)c(=O)c2cc(F)c(N3CCN(C)C(c4ccn(S(=O)(=O)c5ccccc5)c4)C3)cc21` (stereo not shown) [Example 49], the MIC was found to be 256 µg/mL (≈ 475 µM) in experiment [2] (setting [20]); 64 µg/mL (≈ 119 µM) in experiment [3] (setting [21]); 256 µg/mL (≈ 475 µM) in [14]; 32 µg/mL (≈ 59.4 µM) in [5] (setting [22]); 64 µg/mL (≈ 119 µM) in the experiment on Klebsiella pneumoniae AD; 1 µg/mL (≈ 1.86 µM) in experiment [15]. In addition, the minimum inhibitory concentration (MIC) is 256 µg/mL (≈ 475 µM) in [16]; 256 µg/mL (≈ 475 µM) in [17]; 0.5 µg/mL (≈ 0.928 µM) in [8] (setting [23]); greater than 256 µg/mL in experiment [9] (setting [24]); 64 µg/mL (≈ 119 µM) in [18]; 256 µg/mL (≈ 475 µM) in experiment [19].

For the compound `CCn1cc(C(=O)O)c(=O)c2cc(F)c(N3CCNC(c4cc(Cl)sc4Cl)C3)cc21` (stereo not shown) [Example 51], the MIC is 8 µg/mL (≈ 17 µM) in [2] (setting [20]); 8 µg/mL (≈ 17 µM) in experiment [3] (setting [21]); 64 µg/mL (≈ 136 µM) in experiment [14]; 8 µg/mL (≈ 17 µM) in experiment [5] (setting [22]); 8 µg/mL (≈ 17 µM) in the experiment with Klebsiella pneumoniae AD; 1 µg/mL (≈ 2.13 µM) in experiment [15]. Also, the MIC in experiment [16] is 16 µg/mL (≈ 34 µM); in [17], 8 µg/mL (≈ 17 µM); in experiment [8] (setting [23]), 0.5 µg/mL (≈ 1.06 µM); in [9] (setting [24]), greater than 256 µg/mL; in experiment [18] it was 32 µg/mL (≈ 68 µM); in [19] it was 16 µg/mL (≈ 34 µM).

With `CCn1cc(C(=O)O)c(=O)c2cc(F)c(N3CCN(C)C(CF)C3)cc21` (stereo not shown) [Example 25, 1-Ethyl-6-fluoro-7-[3-(fluoromethyl)-4-methyl-1-piperazinyl]-1,4-dihydro-4-oxo-3-quinolinecarboxylic acid], the MIC in experiment [2] (setting [20]) was 1 µg/mL (≈ 2.74 µM); in [3] (setting [21]) it was 0.5 µg/mL (≈ 1.37 µM); in experiment [14] it was 2 µg/mL (≈ 5.47 µM); in [5] (setting [22]) it was 0.25 µg/mL (≈ 0.684 µM); in the experiment with Klebsiella pneumoniae AD, 0.5 µg/mL (≈ 1.37 µM); in [15], 0.5 µg/mL (≈ 1.37 µM). For the same compound, the MIC in experiment [16] turned out to be 1 µg/mL (≈ 2.74 µM); in experiment [17], 1 µg/mL (≈ 2.74 µM); in experiment [8] (setting [23]), 0.5 µg/mL (≈ 1.37 µM); in experiment [9] (setting [24]) it was 2 µg/mL (≈ 5.47 µM); in [18], 8 µg/mL (≈ 21.9 µM); in experiment [19], 1 µg/mL (≈ 2.74 µM).
